Ends that are not written are not given here.
Tests used:
Toxicity at high dosages = format: in vivo; conditions: high dosages of 50 mg per kg body weight per day or higher
Procedure: The dosage of Ezrin peptide 1 and its analogues is not particularly critical, as Ezrin peptide 1 and its analogues are not toxic even at high dosages of 50 mg per kg body weight per day or higher. Preferably, Ezrin peptide 1 and its analogues are administered to an adult human in an amount of at least 0.1 mg per day, in particular at least 0.2 mg per day, e.g. in an amount of at least 0.5 mg per day, such as 0.1 to 50 mg per day or 0.2 to 20 mg per day or 0.5 to 10 mg per day. Typically for parental administrations lower dosages will be required than for oral or rectal administration. To achieve a rapid relief of the symptoms of COVID-19 it may be reasonable to administer at least 1 mg per day or at least 2 mg per day but in other cases a lower dosage may be suitable.

[1] = tested on: inflammatory cytokine production; conditions: cell cultures; cited from earlier work
J-96 Human Cell Line = conditions: cell cultures (Ataullakhanov et al. 2005); cited from earlier work
SARS-COV-2 = assay: Treatment of COVID-19 patients with Ezrin peptide 1 (individual case reports, Examples 1-6); format: in vivo, human

TEKKRRETVEREKE [Ezrin peptide 1, NH2_Thr-Glu-Lys-Lys-Arg-Arg-Glu-Thr-Val-Glu-Arg-Glu-Lys-Glu_COOH]
toxicity (Toxicity at high dosages): not toxic | production of pro- and inflammatory cytokins (e.g. IL-1, IL-6, TNF-alpha) [1]: reduces | synthesis of alpha- and beta interferons [1]: induces | anti-viral effect (J-96 Human Cell Line): anti-viral effect | severe complications such as fibrosis of the lungs (SARS-COV-2; Example 1): did not occur | course of disease, symptoms (SARS-COV-2; Example 1, patient, 0.2 mg s.c. daily, 16.03.2020, 3rd administration): increasing symptoms with strong eye pain | course of disease, symptoms (SARS-COV-2; Example 1, patient, 0.2 mg s.c. daily, 17.03.2020, 4th administration): increasing symptoms with more cough | course of disease, symptoms (SARS-COV-2; Example 1, patient, 0.2 mg s.c. daily, 18.03.2020, 5th administration): significant signs of recovery, no eye pain, decreasing fever | course of disease, symptoms (SARS-COV-2; Example 1, patient, 0.2 mg s.c. daily, 19.03.2020, 6th administration): significant signs of recovery, normal body temperature, no fatigue | course of disease, symptoms (SARS-COV-2; Example 1, patient, 0.2 mg s.c. daily, 20.03.2020, 7th administration): return of taste, good general condition | course of disease, symptoms (SARS-COV-2; Example 1, patient, 0.2 mg s.c. daily, 21.03.2020, 8th administration): no signs of illness anymore | course of the disease (duration) (SARS-COV-2; Example 1, compared to the course expected for patients of this risk group): significantly shorter | severity of symptoms after administration (SARS-COV-2; Example 1, compared with what one would have expected in a patient of this risk group): significantly lower | course of disease, symptoms (SARS-COV-2; Example 2, patient, 2 mg s.c., 25.04.2020, second dose): still general weakness, shortness of breath, cough, loss of appetite | body temperature (SARS-COV-2; Example 2, patient, 2 mg s.c., 26.04.2020 in the evening, third administration): 37.5 °C | course of disease, symptoms (SARS-COV-2; Example 2, patient, 2 mg s.c., 26.04.2020, third administration): Still loss of appetite, slight cough | course of disease, symptoms (SARS-COV-2; Example 2, patient, 2 mg s.c., 27.04.2020, fourth dose): Slight cough, slight headache | course of disease, symptoms (SARS-COV-2; Example 2, patient, 2 mg s.c., 28.04.2020, fifth administration): Only slight pain of touching the scalp, still slight weakness | course of disease, symptoms (SARS-COV-2; Example 2, patient, 2 mg s.c., 30.04.2020, sixth administration): Significant improvement of clinical symptoms, normal temperature | course of disease, symptoms (SARS-COV-2; Example 2, patient, 01. to 04.05.2020, after six doses, antibiotic coverage): taste completely returned, no more cough, no more fever, clinical well-being | course of disease, symptoms (SARS-COV-2; Example 3, patient, 25.12.2020, therapy begun 23.12.2020 with 2 mg/d s.c.): significant improvement of cough and general condition | course of disease, symptoms (SARS-COV-2; Example 3, patient, after completion of therapy (2 mg/d then 0.2 mg/d for four days, s.c.)): No further symptoms | course of disease, symptoms (SARS-COV-2; Example 4, patient, 25.12.2020, therapy begun 23.12.2020 with 2 mg/d s.c.): significant improvement of cough and general condition | course of disease, symptoms (SARS-COV-2; Example 4, patient, after completion of therapy (2 mg/d two days, 0.2 mg/d four days, s.c.)): No further symptoms | course of disease, symptoms (SARS-COV-2; Example 5, patient, 26.12.2020, therapy begun 23.12.2020 with 2 mg/d s.c.): significant improvement of symptoms | shortness of breath (SARS-COV-2; Example 5, patient, after subsequent 0.2 mg/d s.c. for fourteen days from 15.01.2021): No further shortness of breath | course of disease, symptoms (SARS-COV-2; Example 6, patient, 14.12.2020, 0.2 mg/d s.c. begun 10.12.2020): significant improvement of symptoms | course of disease, symptoms (SARS-COV-2; Example 6, patient, 20.12.2020, 0.2 mg/d s.c. for ten days): complete recovery of symptoms

Reference: patent US12629405B2, “Ezrin peptide 1 for use in a method of treating COVID-19” ([…], priority 2020, dated 2026)
